Laboratory results from ChEMBL document CHEMBL1146224, “Design, synthesis, and characterization of novel iron chelators: structure-activity relationships of the 2-benzoylpyridine thiosemicarbazone series and their 3-nitrobenzoyl analogues as potent antitumor agents” (J Med Chem, 2007).

Tests used:
[1] = test system: MRC5; assay: Antiproliferative activity against human MRC5 cells after 72 hrs by MTT assay; format: cell-based; details: MRC5, 72 h
[2] = test system: SK-N-MC; assay: cells; details: Homo sapiens, 72 h
Description: Antiproliferative activity against human SK-N-MC cells after 72 hrs by MTT assay

[3] = Partition coefficient, log P of the compound; format: physicochemical; details: octanol/water
[4] = test system: SK-N-MC; assay: Effect on iron release in SK-N-MC cells; format: functional, Homo sapiens
[5] = test system: SK-N-MC; assay: Inhibition of iron uptake from transferrin in SK-N-MC cells at 50 uM relative to control; format: functional, Homo sapiens; set-up: scale not given: the % may be the effect or the level left

Row | Compound | IC50 [1] [µM] | IC50 [2] [µM] | logP [3] | Activity [4] [%] | Activity [5] [%]
1 | CN(C)C(=S)N/N=C(\c1ccccc1)c1ccccn1 | > 6.25 | 0.004 | 1.29 |  | 
2 | NC(=S)N/N=C(\c1ccccc1)c1ccccn1 |  | 4.66 | 1.92 | 23 | 
3 | CNC(=S)N/N=C(\c1ccccc1)c1ccccn1 | > 6.25 | 0.004 | 0.74 |  | 
4 | CN(C)C(=S)NN=C(c1ccccn1)c1ccccn1 |  | 0.001 |  |  | 
5 | O=C(N/N=C/c1c(O)ccc2ccccc12)c1ccncc1 |  | 0.71 |  |  | 9
6 | NC(=S)N/N=C(\c1cccc([N+](=O)[O-])c1)c1ccccn1 |  | 3.82 | 1.9 | 43 | 7
7 | CNC(=S)N/N=C(\c1cccc([N+](=O)[O-])c1)c1ccccn1 |  | 0.13 | 2.14 |  | 8
8 | CCNC(=S)N/N=C(\c1cccc([N+](=O)[O-])c1)c1ccccn1 | 2.31 | 0.014 | 2.53 |  | 
9 | C=CCNC(=S)N/N=C(\c1ccccc1)c1ccccn1 | > 6.25 | 0.004 | 2.69 |  | 
10 | C=CCNC(=S)N/N=C(\c1cccc([N+](=O)[O-])c1)c1ccccn1 | 2.39 | 0.013 | 1.7 |  | 11
11 | S=C(N/N=C(\c1ccccc1)c1ccccn1)Nc1ccccc1 | 1.86 | 0.005 | 1.92 |  | 
12 | CCNC(=S)N/N=C(\c1ccccc1)c1ccccn1 | > 6.25 | 0.002 | 4.01 |  | 
13 | CC(=O)N(O)CCCCCNC(=O)CCC(=O)N(O)CCCCCNC(=O)CCC(=O)N(O)CCCCCN [DEFEROXAMINE] |  | 4.51 |  | 7 | 
14 | Cc1ncc(CO)c(/C=N/NC(=O)c2ccncc2)c1O [PYRIDOXAL ISONICOTINOYL HYDRAZONE] |  |  |  |  | 21
15 | NC(=S)N/N=C/c1ncccc1N [TRIAPINE] |  | 0.26 |  |  | 
